According to BigSolDB 2.1:

COc1cc(/C=C/C(=O)O)cc(OC)c1OC
solubility (mole fraction)
Details | 278.15 K | 283.15 K | 288.15 K | 293.15 K | 298.15 K | 303.15 K | 308.15 K | 313.15 K | 318.15 K | 323.15 K
in acetone | 0.0175 | 0.0201 | 0.0232 | 0.0265 | 0.0301 | 0.0343 | 0.0391 | 0.044 | 0.0492 | 0.0551
in ethanol | 0.00626 | 0.0085 | 0.0114 | 0.0153 | 0.0201 | 0.0261 | 0.0341 | 0.044 | 0.057 | 0.0725
in isopropanol | 0.00465 | 0.0063 | 0.00867 | 0.0121 | 0.0163 | 0.0215 | 0.0289 | 0.039 | 0.0511 | 0.0665
in methanol | 0.00662 | 0.00922 | 0.0127 | 0.0175 | 0.0236 | 0.0315 | 0.0417 | 0.0548 | 0.0717 | 0.0943
in water | 4.67e-05 | 5.3e-05 | 6.05e-05 | 6.8e-05 | 7.61e-05 | 8.55e-05 | 9.58e-05 | 0.000107 | 0.000118 | 0.000131
